From PMC5770598, “Small molecules targeted to the microtubule–Hec1 interaction inhibit cancer cell growth through microtubule stabilization” (Oncogene, 2017)

Columns and labels:
[1] = target: T1, MTs (assembled microtubules); experiment: SPR, steady-state Scatchard plot; format: binding; conditions: microtubules immobilised on COOH5 chip; pH 7.4, 10 mM Hepes, 150 mM NaCl, 2 mM MgCl2, 0.05% P20, 2% DMSO; error printed as ±0.1
T1 construct: gene alpha-tubulin; assembled microtubules (polymer of alpha/beta-tubulin dimers), 6050 RU amine-coupled to COOH5 chip

[2] = target: T2, tubulin (dimeric); experiment: SPR, steady-state Scatchard plot; format: binding; conditions: tubulin dimers immobilised on COOH5 chip; pH 7.4, 10 mM Hepes, 150 mM NaCl, 2 mM MgCl2, 0.05% P20, 2% DMSO
T2 construct: gene alpha-tubulin; unassembled alpha/beta-tubulin dimer, 3900 RU amine-coupled to COOH5 chip

O=C(/C=C/c1cn(CC(O)CN2CCCCC2)c2ccccc12)c1ccc(Br)cc1 (centres unmarked) [SM15]
Kd [1]: 0.94 ± 0.13 µM | Kd [2]: 1.8 ± 0.4 µM
